This experiment deals with hPSC-derived primitive splanchnic mesoderm (SM). Briefly: Treatment of hPSC-derived primitive SM from d4-d7 with HH, RA, Wnt and BMP agonists or antagonists; RT-PCR, immunostaining, RNA-scope. Format: cell-based, human. The protocol: For RNAscope on mouse tissue, fixed embryos were immersed in 30% sucrose/PBS overnight, embedded in OCT, cryosectioned (12 μm) onto Superfrost Plus slides (Thermo Fisher) and stored at −80° C. overnight. For RNAscope of adherent hPSC culture, cells were differentiated on Geltrex-coated u-Slide 8 well (ibid) and fixed in 4% PFA at room temperature for 30 min, Cells were dehydrated with ethanol gradient and stored in 100% ethanol at −20° C. RNAscope fluorescent in situ hybridization was conducted with RNAscope Multiplex Fluorescent Detection Reagents V2 (Advanced Cell Diagnostics, Inc.) and Opal fluorophore (Akoya Biosciences) according to manufacturer's instructions.
Differentiation of hPSCs into lateral plate mesoderm was induced using previously described methods with modifications. In brief, partially confluent hPSCs were dissociated into very fine clumps in Accutase (Invitrogen) and passaged 1:18 onto new Geltrex-coated 24-well plates for immunocytochemistry and 12-well plates for RNA preparation in mTeSR1 with 1 μM thiazovivin (Tocris) (Day 1). […]
Total RNA was prepared from differentiating human ES cells by using Nucleospin kit according to manufacturer's protocol. […] Significance was determined by one-way ANOVA, followed by Tukey's test. […]

Take `c1ccc2c(Oc3nc(Nc4ccc(N5CCOCC5)cc4)c4ncn(C5CCCCC5)c4n3)cccc2c1` [HH-agonist, purmorphamine]: the gut tube identity entry is “promoted” and the hepatic fate entry is reported as “efficiently blocked”.

Values taken from patent US20220275341A1, “ORGANOID MESODERM LINEAGE DIVERSIFICATION” (CHILDREN'S HOSPITAL MEDICAL CENTER, priority 2019, published 2022).
